From article PMC6331615, “Aminoacyl sulfonamide assembly in SB-203208 biosynthesis” (Nature Communications, 2019)

T1: SbzB (Streptomyces sp., UniProt P0DY32)
T1 construct: pET28a NdeI/HindIII, His-tagged, E. coli Rosetta2 (DE3), Ni-NTA
T1 sequence (P0DY32 1-532): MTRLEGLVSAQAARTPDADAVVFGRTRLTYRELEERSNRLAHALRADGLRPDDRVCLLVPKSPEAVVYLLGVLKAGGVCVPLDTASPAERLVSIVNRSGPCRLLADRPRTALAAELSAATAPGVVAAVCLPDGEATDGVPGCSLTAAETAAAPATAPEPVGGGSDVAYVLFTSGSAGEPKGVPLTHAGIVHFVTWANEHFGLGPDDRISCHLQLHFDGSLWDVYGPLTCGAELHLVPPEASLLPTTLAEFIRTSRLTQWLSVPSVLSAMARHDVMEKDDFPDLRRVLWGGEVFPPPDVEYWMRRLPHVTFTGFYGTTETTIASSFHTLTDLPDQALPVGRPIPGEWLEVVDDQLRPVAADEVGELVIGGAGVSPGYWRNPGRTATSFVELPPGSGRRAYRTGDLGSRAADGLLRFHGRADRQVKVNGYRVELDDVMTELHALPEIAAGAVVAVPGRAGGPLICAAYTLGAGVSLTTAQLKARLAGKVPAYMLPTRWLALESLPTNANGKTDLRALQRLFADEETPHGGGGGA

B1: SbzM (Streptomyces sp.) (protein)
chain: MSTQQVIAMLTEELHDLDPAERQAKTVELLAVFGRAKAEALQPEERPEAPDTKPGPLLICDWAADLGLDGTTQQLGIEVAPGPTKVTKTADATGHSLASSGHVGADILHVPAGSGFAPHTHPGDHLLFVLAGTGTIAVAGEIVRTRPGQVYMVQGDITHAVGAVTDHMILSVGAPHRRLDSPDRQELTAYAALLGELGEITCRLCDISAAGGEELAAKGCTHSPHRFG
notes: pET28a NdeI/HindIII, His-tagged, E. coli Rosetta2 (DE3), Ni-NTA; tag cleavage not mentioned

Columns and labels:
SbzB = target: T1, SbzB; test: malachite green adenylation assay with hydroxylamine; chiral HPLC; type: biochemical; settings: 0.5 mM ATP, 10 mM MgCl2, Tris-HCl pH 7.5, 30 °C
[1] = substrate: N[C@@H](CS)C(=O)O; test: LC-MS quantification of substrate consumption; type: biochemical, Streptomyces sp.; settings: 50 mM Tris pH 9.0, 30 °C, TCEP, 6 μM SbzM, 2 min, n = 2

Molecule | malachite green adenylation assay with hydroxylamine; chiral HPLC (SbzB) | Km [1] [µM]
C[C@H](c1ccccc1)[C@H](N)C(=O)O [(2S, 3R)-β-methylphenylalanine] | SbzB indeed selectively adenylated (2S, 3R)-β-methylphenylalanine as the best substrate | –
B1 | – | 530 ± 80
